From patent US8394848B2, “Compounds that modulate intracellular calcium” (Calcimedica, Inc., priority 2008, dated 2013)

System: JR251 or RBL cells
Assay: Store-operated calcium entry, either JR251 or RBL cells, or both
Format: cell-based
Description: The day prior to performing the assay, RBL-2H3 cells are plated in 50 μL of complete medium in a 384 well plate. Cells are grown at 37° C./6% CO2 overnight and grow to 50-60% confluence by the next day. On the assay day, 1.5 μM Fluo-4-AM dye (Invitrogen) in complete medium is added and incubated for 1 hour at RT. Cells are washed twice in Ca^2+-free HBSS buffer and 35 μL Ca^2+-free HBSS buffer is added to each well. 10 μL of a test compound prepared in a Ca^2+-free HBSS solution at 4.5× of the desired concentration is added to a well and incubated for 5 minutes at RT. 10 μL of thapsigargin prepared in a Ca^2+-free HBSS solution at 5.5× of the desired concentration (5.5 uM) is added to each well and incubated for an additional 25 minutes. The initial baseline fluorescence signal is measured with a FLIPR^384 (Molecular Devices) plate reader. 5 μL of 12× calcium in HBSS (12 mM) is added and changes in cellular fluorescence are measured with the FLIPR^384 plate reader. In each well, the change in the fluorescent signal as a function of time due to calcium entry into the cell is determined by calculating the difference between the fluorescent signal measured 7 seconds after calcium addition and the initial baseline fluorescence signal at time zero (t=0). This parameter is designated Upslope. The IC50 value is calculated as the concentration at which 50% of the Upslope is inhibited.

Compound	IC50
O=C(Nc1scc(-c2ccc(Cl)c(F)c2)c1C(=O)O)c1ccc2snnc2c1 [2-(benzo[d][1,2,3]thiadiazole-5-carboxamido)-4-(4-chloro-3-fluorophenyl)thiophene-3-carboxylic acid]	< 10 µM
COc1cc(-c2csc(NC(=O)c3ccc4snnc4c3)c2C(=O)O)ccc1Cl [2-(benzo[d][1,2,3]thiadiazole-5-carboxamido)-4-(4-chloro-3-methoxyphenyl)thiophene-3-carboxylic acid]	< 10 µM
O=C(Nc1scc(-c2ccc(Cl)cc2)c1C(=O)O)c1ccc2snnc2c1 [2-(benzo[d][1,2,3]thiadiazole-5-carboxamido)-4-(4-chlorophenyl)thiophene-3-carboxylic acid]	< 10 µM
N#Cc1ccc(-c2csc(NC(=O)c3ccc4snnc4c3)c2C(=O)O)cc1 [2-(benzo[d][1,2,3]thiadiazole-5-carboxamido)-4-(4-cyanophenyl)thiophene-3-carboxylic acid]	< 10 µM
O=C(Nc1scc(-c2cc3cccc(O)c3o2)c1C(=O)O)c1ccc2snnc2c1 [2-(benzo[d][1,2,3]thiadiazole-5-carboxamido)-4-(7-hydroxybenzofuran-2-yl)thiophene-3-carboxylic acid]	< 10 µM
COc1cccc2cc(-c3csc(NC(=O)c4ccc5snnc5c4)c3C(=O)O)oc12 [2-(benzo[d][1,2,3]thiadiazole-5-carboxamido)-4-(7-methoxybenzofuran-2-yl)thiophene-3-carboxylic acid]	< 10 µM
O=C(Nc1scc(-c2ccc(Br)cc2)c1C(=O)O)c1ccc2nnsc2c1 [2-(benzo[d][1,2,3]thiadiazole-6-carboxamido)-4-(4-bromophenyl)thiophene-3-carboxylic acid]	< 10 µM
O=C(Nc1scc(-c2ccc(Cl)cc2)c1C(=O)O)c1ccc2nnsc2c1 [2-(benzo[d][1,2,3]thiadiazole-6-carboxamido)-4-(4-chlorophenyl)thiophene-3-carboxylic acid]	< 10 µM
O=C(Nc1scc(-c2cc3cccc(O)c3o2)c1C(=O)O)c1ccc2nnsc2c1 [2-(benzo[d][1,2,3]thiadiazole-6-carboxamido)-4-(7-hydroxybenzofuran-2-yl)thiophene-3-carboxylic acid]	< 10 µM
O=C(Nc1scc(-c2ccc(F)c(F)c2F)c1C(=O)O)c1nc2ccccc2o1 [2-(benzo[d]oxazole-2-carboxamido)-4-(2,3,4-trifluorophenyl)thiophene-3-carboxylic acid]	< 10 µM
Cc1ccc(-c2csc(NC(=O)c3nc4ccccc4o3)c2C(=O)O)c(F)c1F [2-(benzo[d]oxazole-2-carboxamido)-4-(2,3-difluoro-4-methylphenyl)thiophene-3-carboxylic acid]	< 10 µM
O=C(Nc1scc(-c2ccc3c(c2)CCC3)c1C(=O)O)c1nc2ccccc2o1 [2-(benzo[d]oxazole-2-carboxamido)-4-(2,3-dihydro-1H-inden-5-yl)thiophene-3-carboxylic acid]	< 10 µM
O=C(Nc1scc(-c2ccc3c(c2)CCO3)c1C(=O)O)c1nc2ccccc2o1 [2-(benzo[d]oxazole-2-carboxamido)-4-(2,3-dihydrobenzofuran-5-yl)thiophene-3-carboxylic acid]	< 10 µM
O=C(Nc1scc(-c2ccc(F)c(O)c2F)c1C(=O)O)c1nc2ccccc2o1 [2-(benzo[d]oxazole-2-carboxamido)-4-(2,4-difluoro-3-hydroxyphenyl)thiophene-3-carboxylic acid]	< 10 µM
COc1c(F)ccc(-c2csc(NC(=O)c3nc4ccccc4o3)c2C(=O)O)c1F [2-(benzo[d]oxazole-2-carboxamido)-4-(2,4-difluoro-3-methoxyphenyl)thiophene-3-carboxylic acid]	< 10 µM
O=C(Nc1scc(-c2ccc(F)cc2F)c1C(=O)O)c1nc2ccccc2o1 [2-(benzo[d]oxazole-2-carboxamido)-4-(2,4-difluorophenyl)thiophene-3-carboxylic acid]	< 10 µM
O=C(Nc1scc(-c2ccc(C(F)(F)F)cc2Cl)c1C(=O)O)c1nc2ccccc2o1 [2-(benzo[d]oxazole-2-carboxamido)-4-(2-chloro-4-(trifluoromethyl)phenyl)thiophene-3-carboxylic acid]	< 10 µM
COc1ccc(-c2csc(NC(=O)c3nc4ccccc4o3)c2C(=O)O)c(Cl)c1 [2-(benzo[d]oxazole-2-carboxamido)-4-(2-chloro-4-methoxyphenyl)thiophene-3-carboxylic acid]	< 10 µM
Cc1ccc(-c2csc(NC(=O)c3nc4ccccc4o3)c2C(=O)O)c(Cl)c1 [2-(benzo[d]oxazole-2-carboxamido)-4-(2-chloro-4-methylphenyl)thiophene-3-carboxylic acid]	< 10 µM

Compound	IC50
O=C(Nc1scc(-c2ccc(C(F)(F)F)cc2F)c1C(=O)O)c1nc2ccccc2o1 [2-(benzo[d]oxazole-2-carboxamido)-4-(2-fluoro-4-(trifluoromethyl)phenyl)thiophene-3-carboxylic acid]	< 10 µM
Cc1ccc(-c2csc(NC(=O)c3nc4ccccc4o3)c2C(=O)O)c(F)c1 [2-(benzo[d]oxazole-2-carboxamido)-4-(2-fluoro-4-methylphenyl)thiophene-3-carboxylic acid]	< 10 µM
COc1cc(C(F)(F)F)ccc1-c1csc(NC(=O)c2nc3ccccc3o2)c1C(=O)O [2-(benzo[d]oxazole-2-carboxamido)-4-(2-methoxy-4-(trifluoromethyl)phenyl)thiophene-3-carboxylic acid]	< 10 µM
Cc1cc(C(F)(F)F)ccc1-c1csc(NC(=O)c2nc3ccccc3o2)c1C(=O)O [2-(benzo[d]oxazole-2-carboxamido)-4-(2-methyl-4-(trifluoromethyl)phenyl)thiophene-3-carboxylic acid]	< 10 µM
O=C(Nc1scc(-c2cc(F)c(F)c(F)c2)c1C(=O)O)c1nc2ccccc2o1 [2-(benzo[d]oxazole-2-carboxamido)-4-(3,4,5-trifluorophenyl)thiophene-3-carboxylic acid]	< 10 µM
O=C(Nc1scc(-c2ccc(Cl)c(Cl)c2)c1C(=O)O)c1nc2ccccc2o1 [2-(benzo[d]oxazole-2-carboxamido)-4-(3,4-dichlorophenyl)thiophene-3-carboxylic acid]	< 10 µM
Cc1ccc(-c2csc(NC(=O)c3nc4ccccc4o3)c2C(=O)O)cc1C [2-(benzo[d]oxazole-2-carboxamido)-4-(3,4-dimethylphenyl)thiophene-3-carboxylic acid]	< 10 µM
Cc1ccc(-c2csc(NC(=O)c3nc4ccccc4o3)c2C(=O)O)cc1CO [2-(benzo[d]oxazole-2-carboxamido)-4-(3-(hydroxymethyl)-4-methylphenyl)thiophene-3-carboxylic acid]	< 10 µM
N#Cc1cc(-c2csc(NC(=O)c3nc4ccccc4o3)c2C(=O)O)ccc1F [2-(benzo[d]oxazole-2-carboxamido)-4-(3-cyano-4-fluorophenyl)thiophene-3-carboxylic acid]	< 10 µM
Cc1ccc(-c2csc(NC(=O)c3nc4ccccc4o3)c2C(=O)O)cc1F [2-(benzo[d]oxazole-2-carboxamido)-4-(3-fluoro-4-methylphenyl)thiophene-3-carboxylic acid]	< 10 µM
O=C(Nc1scc(-c2ccc(OC(F)(F)F)cc2)c1C(=O)O)c1nc2ccccc2o1 [2-(benzo[d]oxazole-2-carboxamido)-4-(4-(trifluoromethoxy)phenyl)thiophene-3-carboxylic acid]	< 10 µM
O=C(Nc1scc(-c2ccc(C(F)(F)F)cc2)c1C(=O)O)c1nc2ccccc2o1 [2-(benzo[d]oxazole-2-carboxamido)-4-(4-(trifluoromethyl)phenyl)thiophene-3-carboxylic acid]	< 10 µM
O=C(Nc1scc(-c2ccc(Br)c(F)c2F)c1C(=O)O)c1nc2ccccc2o1 [2-(benzo[d]oxazole-2-carboxamido)-4-(4-bromo-2,3-difluorophenyl)thiophene-3-carboxylic acid]	< 10 µM
O=C(Nc1scc(-c2ccc(Br)cc2F)c1C(=O)O)c1nc2ccccc2o1 [2-(benzo[d]oxazole-2-carboxamido)-4-(4-bromo-2-fluorophenyl)thiophene-3-carboxylic acid]	< 10 µM
O=C(Nc1scc(-c2ccc(Br)cc2)c1C(=O)O)c1nc2ccccc2o1 [2-(benzo[d]oxazole-2-carboxamido)-4-(4-bromophenyl)thiophene-3-carboxylic acid]	< 10 µM
O=C(Nc1scc(-c2ccc(Cl)c(F)c2F)c1C(=O)O)c1nc2ccccc2o1 [2-(benzo[d]oxazole-2-carboxamido)-4-(4-chloro-2,3-difluorophenyl)thiophene-3-carboxylic acid]	< 10 µM
O=C(Nc1scc(-c2cc(F)c(Cl)cc2F)c1C(=O)O)c1nc2ccccc2o1 [2-(benzo[d]oxazole-2-carboxamido)-4-(4-chloro-2,5-difluorophenyl)thiophene-3-carboxylic acid]	< 10 µM
Cc1cc(-c2csc(NC(=O)c3nc4ccccc4o3)c2C(=O)O)c(F)cc1Cl [2-(benzo[d]oxazole-2-carboxamido)-4-(4-chloro-2-fluoro-5-methylphenyl)thiophene-3-carboxylic acid]	< 10 µM
O=C(Nc1scc(-c2ccc(Cl)cc2F)c1C(=O)O)c1nc2ccccc2o1 [2-(benzo[d]oxazole-2-carboxamido)-4-(4-chloro-2-fluorophenyl)thiophene-3-carboxylic acid]	< 10 µM
